The test system of one data set is SIRT1. The experiment in a line: SIRT1 abundance in ARPE-19 cells under oxidative stress. In kind it is cell-based. The note with it: ARPE-19 / human RPE cells confronted with OS. The text has this: FIG. 10. (A) Effect of NPD1 and VLC-PUFA C32:6 and C34:6 in mediating upregulation of SIRT1 in ARPE-19 cells. (B) Quantification of SIRT1 upregulation by NPD1, C32:6 and C34:6. SIRT1 (Sirtuin1) belongs to a family of highly conserved proteins linked to caloric restriction beneficial outcomes and aging by regulating energy metabolism, genomic stability and stress resistance. SIRT1 is a potential therapeutic target in several diseases including cancer, diabetes, inflammatory disorders, and neurodegenerative diseases or disorders. Elovanoids induce cell survival involving the upregulation of the Bcl2 class of survival proteins and the downregulation of pro-apoptotic Bad and Bax under oxidative stress (OS) in RPE cells. […] As a consequence, remarkable cell survival takes place. This target of elovanoids might be relevant to counteract consequences of several diseases associated with SIRT1.
FIG. 10—(A) Effect of NPD1 and VLC-PUFA C32:6 and C34:6 in mediating upregulation of SIRT1 in ARPE-19 cells. (B) Quantification of SIRT1 upregulation by NPD1, C32:6 and C34:6. SIRT1 (Sirtuin1) belongs to a family of highly conserved proteins linked to caloric restriction beneficial outcomes and aging by regulating energy metabolism, genomic stability and stress resistance. […]

Data set [1] deals with human retinal pigment epithelial cells (ARPE-19, HRPE). The experiment in a line: Formation of hydroxylated derivatives from VLC-PUFA in human RPE cells in culture (LC-MS/MS). In kind it is in vitro ADME. The note with it: 34:6n3 100 nM, 12-16 hours, culture media. As for the experimental part:
FIG. 2. Evidence of cell-derived hydroxylated derivatives (29-hydroxy-34:6 and 22,29-dihydroxy-34:6) derived from the omega-3 VLC-PUFA 34:6n3 (C34:6) from human retinal pigment epithelial cells in culture. Human retinal pigment epithelial cells (spontaneously transformed ARPE-19 cells) or primary human retinal pigment epithelial cells (HRPE) were incubated with 34:6n3 (100 nM) during 12-16 hours and then the culture media collected lipid extracted and run in LC-MS/MS.
Evidence for the formation of hydroxylated VLC-PUFA in cells as postulated in FIG. 1, and as documented in FIG. 2. […] The preferred structures of 2 are 2a and 2b, while the preferred structures of 3 are 3a and 3b. […] The cell-derived hydroxylated derivatives 2 and 3 were obtained from human retinal pigment epithelial cells in culture. Human retinal pigment epithelial cells (spontaneously transformed ARPE-19 cells) or primary human retinal pigment epithelial cells (HRPE) were incubated with 34:6n3 (100 nM) during 12-16 hours and then the culture media collected lipid extracted and run in LC-MS/MS. […] The stereochemistry of the mono- and di-hydroxy compounds were not possible to determine, but they were presumed to be the same as those derived from DHA.

The next data set deals with Bcl-xL. The experiment in a line: Bcl-xL protein in ARPE-19 cells under oxidative stress. In kind it is cell-based, human. Particulars: ARPE-19 cells under OS. As for the experimental part:
(§1) FIG. 8. (A) Bcl-xL-upregulation by elovanoids ELV1 and ELV2 in ARPE-19 cells under stress. Bcl-xL is the antiapoptotic Bcl2 family protein. Like proapoptotic proteins Bid and Bim, the effect of elovaniod precursors on the antiapoptotic protein Bcl-xL was tested in this figure in RPE cells under OS. […] (B) Effect of NPD1, ELV1 and ELV2 on Bax expression in LOX-D cells under stress. Proapoptotic Bax was tested in this figure. […] C) VLC-PUFA and elovanoids ELV1 and ELV2 mediated effect on Bax upregulation in ARPE-19 cells under stress. In this experiment, elovanoid precursors along with VLC-PUFA were tested on the downregulation of the Bax protein in RPE cells under stress.
as §1, with “8—(A)” for “8. (A)”

Data set [2] relates to neuronal cells in primary cultures. The experiment in a line: NMDA-induced toxicity in neuronal cells in primary culture, MTT assay for cell viability. The data set is classed as cell-based. The text has this:
FIG. 11. […] In several neurological and neurodegenerative diseases, such as stroke, epilepsy, status epilepticus, traumatic head injury, etc., as well as ophthalmological diseases, such as glaucoma, an excessive presynaptic release of the excitatory neurotransmitter glutamate takes place. As a consequence, glutamate transporters that function to remove extracellular glutamate from astrocytes and neurons are overwhelmed and the NMDA-type glutamate receptor is over-activated. This receptor is a calcium channel that therefore leads to a flooding of calcium into the postsynaptic cell. The overall phenomena is refer to as excitotoxicity that in turn leads to neuronal damage and cell death. MK801 is a known blocker of this receptor used here as a control.
In several neurological and neurodegenerative diseases, such as stroke, epilepsy, status epilepticus, traumatic head injury, etc., as well as ophthalmological diseases, such as glaucoma, an excessive presynaptic release of the excitatory neurotransmitter glutamate takes place. As a consequence, glutamate transporters that function to remove extracellular glutamate from astrocytes and neurons are overwhelmed and the NMDA-type glutamate receptor is over-activated. This receptor is a calcium channel that therefore leads to a flooding of calcium into the postsynaptic cell. The overall phenomena is refer to as excitotoxicity that in turn leads to neuronal damage and cell death. MK801 is a known blocker of this receptor used here as a control.
For orientation: Tetrazolium assays rely on reduction of a dye to a coloured formazan, in cell work by metabolically active cells.

A further data set deals with Bax. The experiment in a line: Bax expression in LOX-D RPE cells under oxidative stress. In kind it is cell-based, human. Here is the method: as §1
as §1, with “8—(A)” for “8. (A)”

SMILES strings stand for the structures. “Also recorded” adds a separate entry of the source.

In the case of `CC/C=C\C/C=C\C/C=C\C/C=C\C/C=C\C/C=C\CCCCCCCCCCCCCCC(=O)O` [C34:6], the “effect on SIRT1 abundance (FIG. 10)” value with SIRT1 is on record as “mediate the upregulation of SIRT1”. The “conversion to mono- and di-hydroxylated derivatives in cell culture (FIG. 2)” value in data set [1] was “yielded a hydroxylated product; also recorded: could be detected”.

For `CC/C=C\C[C@H](O)\C=C/C=C/C=C/[C@H](O)C/C=C\C/C=C\CCCCCCCCCCCCCCC(=O)O` [ELV2, (16Z,19Z,22R,23E,25E,27Z,29S,31Z)-22,29-dihydroxytetratriaconta-16,19,23,25,27,31-hexaenoic acid], the “effect on antiapoptotic Bcl-xL protein (FIG. 8A)” value with Bcl-xL was “potent upregulation”. Moreover, in data set [2] (200 nM), the “protection of neuronal cells from NMDA-induced toxicity (FIG. 11A)” value is reported as “potently protects neuronal cells”. The “cell death and cell viability with NMDA in increasing concentrations (FIG. 11)” value in data set [2] (neuronal cultures, MTT) was “reduces cell death and increases cell viability”. Besides, the “effect on Bax upregulation by OS (FIG. 8B)” value in the data set with Bax is on record as “potent downregulation”.

The values above are taken from patent US12565467B2, “Compounds, compositions, and methods for the treatment of inflammatory, degenerative, and neurodegenerative diseases” (Board of Supervisors of Louisiana State University and …, priority 2015, dated 2026).
